In ChEMBL document CHEMBL1135182, “Synthesis and anti-influenza evaluation of polyvalent sialidase inhibitors bearing 4-guanidino-Neu5Ac2en derivatives” (Bioorg Med Chem Lett, 2002):
Converted amounts (≈) assume the structure as drawn. Non-standard residues stand in square brackets, D forms with d. Residues, ends and D or L forms follow the SMILES beside them. ξ: configuration not given here. *: point of attachment. X3 = CC(=O)N[C@H]1[C@H]([C@H](OCCCCCN*)[C@H](O)CO)OC(C(=O)O)=C[C@@H]1NC(=N)N; X4 = CC(=O)N[C@H]1[C@H]([C@H](OCCCCCN*)[C@H](O)CO)OC(C(=O)O)=C[C@@H]1N=C(N)N; X1 = CC(=O)N[C@H]1[C@H]([C@H](OCCN*)[C@H](O)CO)OC(C(=O)O)=C[C@@H]1NC(=N)N; X2 = CC(=O)N[C@H]1[C@H]([C@H](OCCN*)[C@H](O)CO)OC(C(=O)O)=C[C@@H]1N=C(N)N; ξE = NC(CCC(=O)O)C(=O)O; NHBn = c1ccc(CN*)cc1; NHPentyl = CCCCCN*

Tests used:
[1] = tested on: Influenza A virus; test: Inhibitory concentration by Sialidase inhibitory assay; format: functional, organism-based
[2] = tested on: Influenza A virus; test: Inhibitory concentration by Plaque reduction assay; format: functional, organism-based
[3] = species: Mus musculus; test: Number of survivors out of 8 tested mice at 10 days after infection with influenza A/PR/8/34 (H1N1) virus; format: functional
[4] = species: Mus musculus; test: Number of survivors out of 8 tested mice at 20 days after infection, with influenza A/PR/8/34 (H1N1) virus; format: functional
[5] = species: Mus musculus; test: Number of survivors out of 7 tested mice at 20 days after infection with influenza A/PR/8/34 (H1N1) virus; format: functional
[6] = species: Mus musculus; test: Number of survivors out of 7 tested mice at 10 days after infection with influenza A/PR/8/34 (H1N1) virus; format: functional

SMILES | IC50 [1] | IC50 [2] | Survival rate [3] | Survival rate [4] | Survival rate [5] | Survival rate [6]
CC(=O)N[C@H]1[C@H]([C@H](OCCNC(=O)CC[C@H](NC(=O)[C@H](CCC(=O)NCc2ccccc2)NC(=O)[C@H](CCC(=O)NCc2ccccc2)NC(=O)[C@H](CCC(=O)NCc2ccccc2)NC(=O)[C@@H](N)CCC(=O)NCc2ccccc2)C(=O)N[C@@H](CCC(N)=O)C(=O)N[C@@H](CCC(N)=O)C(=O)N[C@@H](CCC(N)=O)C(=O)N[C@@H](CCC(N)=O)C(=O)N[C@@H](CCC(N)=O)C(=O)N[C@@H](CCC(N)=O)C(=O)N[C@@H](CCC(N)=O)C(N)=O)[C@H](O)CO)OC(C(=O)O)=C[C@@H]1NC(=N)N (H-E(NHBn)E(NHBn)E(NHBn)E(NHBn)E(X1)QQQQQQQ-NH2) | 324 ng/mL (≈ 143 nM) | 0.15 ng/mL (≈ 0.066 nM) |  |  |  | 
CC(=O)N[C@H]1[C@H]([C@H](OCCCCCNC(=O)CC[C@H](NC(=O)[C@H](CCC(=O)NCc2ccccc2)NC(=O)[C@@H](N)CCC(=O)NCc2ccccc2)C(=O)N[C@@H](CCC(N)=O)C(=O)N[C@@H](CCC(N)=O)C(=O)N[C@@H](CCC(N)=O)C(=O)N[C@@H](CCC(N)=O)C(=O)N[C@@H](CCC(N)=O)C(=O)N[C@@H](CCC(N)=O)C(=O)N[C@@H](CCC(N)=O)C(=O)N[C@@H](CCC(N)=O)C(N)=O)[C@H](O)CO)OC(C(=O)O)=C[C@@H]1NC(=N)N (H-E(NHBn)E(NHBn)E(X3)QQQQQQQQ-NH2) | 63 ng/mL (≈ 31.4 nM) | 0.028 ng/mL (≈ 0.014 nM) |  |  |  | 
CC(=O)NCCCCCO[C@@H]([C@@H]1OC(C(=O)O)=C[C@H](N=C(N)N)[C@H]1NC(C)=O)[C@H](O)CO | 90 ng/mL (≈ 196 nM) | 5.9 ng/mL (≈ 12.8 nM) |  |  |  | 
CC(=O)N[C@H]1[C@H]([C@H](O)[C@H](O)CO)OC(C(=O)O)=C[C@@H]1NC(=N)N [ZANAMIVIR] |  |  | 1 | 0 |  | 
CC(=O)N[C@H]1[C@H]([C@H](OCCNC(=O)CCC(N)C(=O)N[C@@H](CCC(N)=O)C(=O)N[C@@H](CCC(N)=O)C(=O)N[C@@H](CCC(N)=O)C(=O)CN[C@@H](CCC(N)=O)C(=O)N[C@@H](CCC(N)=O)C(=O)N[C@@H](CCC(N)=O)C(=O)N[C@@H](CCC(N)=O)C(=O)N[C@@H](CCC(N)=O)C(=O)N[C@@H](CCC(N)=O)C(=O)N[C@@H](CCC(N)=O)C(N)=O)[C@H](O)CO)OC(C(=O)O)=C[C@@H]1NC(=N)N (some centres undefined) | 114 ng/mL (≈ 63.4 nM) | 0.066 ng/mL (≈ 0.0367 nM) |  |  |  | 
CCCCCNC(=O)CC[C@H](NC(=O)[C@H](CCC(=O)NCCCCC)NC(=O)[C@H](CCC(=O)NCCCCC)NC(=O)[C@@H](N)CCC(=O)NCCCCC)C(=O)N[C@@H](CCC(=O)NCCO[C@@H]([C@@H]1OC(C(=O)O)=C[C@H](N=C(N)N)[C@H]1NC(C)=O)[C@H](O)CO)C(=O)N[C@@H](CCC(N)=O)C(=O)N[C@@H](CCC(N)=O)C(=O)N[C@@H](CCC(N)=O)C(=O)N[C@@H](CCC(N)=O)C(=O)N[C@@H](CCC(N)=O)C(=O)N[C@@H](CCC(N)=O)C(=O)N[C@@H](CCC(N)=O)C(N)=O (H-E(NHPentyl)E(NHPentyl)E(NHPentyl)E(NHPentyl)E(X2)QQQQQQQ-NH2) | 585 ng/mL (≈ 267 nM) | 0.1 ng/mL (≈ 0.0456 nM) |  |  |  | 
CC(=O)N[C@H]1[C@H]([C@H](OCCCCCNC(=O)CCC(N)C(=O)N[C@@H](CCC(N)=O)C(=O)N[C@@H](CCC(N)=O)C(=O)N[C@@H](CCC(N)=O)C(=O)CN[C@@H](CCC(N)=O)C(=O)N[C@@H](CCC(N)=O)C(=O)N[C@@H](CCC(N)=O)C(=O)N[C@@H](CCC(N)=O)C(=O)N[C@@H](CCC(N)=O)C(=O)N[C@@H](CCC(N)=O)C(=O)N[C@@H](CCC(N)=O)C(N)=O)[C@H](O)CO)OC(C(=O)O)=C[C@@H]1NC(=N)N (some centres undefined) | 161 ng/mL (≈ 87.5 nM) | 0.072 ng/mL (≈ 0.0391 nM) |  |  | 7 | 7
CC(=O)N[C@H]1[C@H]([C@H](OCCCCCCCCCCNC(=O)CCC(N)C(=O)N[C@@H](CCC(N)=O)C(=O)N[C@@H](CCC(N)=O)C(=O)N[C@@H](CCC(N)=O)C(=O)CN[C@@H](CCC(N)=O)C(=O)N[C@@H](CCC(N)=O)C(=O)N[C@@H](CCC(N)=O)C(=O)N[C@@H](CCC(N)=O)C(=O)N[C@@H](CCC(N)=O)C(=O)N[C@@H](CCC(N)=O)C(=O)N[C@@H](CCC(N)=O)C(N)=O)[C@H](O)CO)OC(C(=O)O)=C[C@@H]1NC(=N)N (some centres undefined) | 62 ng/mL (≈ 32.4 nM) | 2.1 ng/mL (≈ 1.1 nM) |  |  |  | 
CCCCCNC(=O)CC[C@H](NC(=O)[C@@H](N)CCC(=O)NCCCCC)C(=O)N[C@@H](CCC(=O)NCCCCCO[C@@H]([C@@H]1OC(C(=O)O)=C[C@H](N=C(N)N)[C@H]1NC(C)=O)[C@H](O)CO)C(=O)N[C@@H](CCC(N)=O)C(=O)N[C@@H](CCC(N)=O)C(=O)N[C@@H](CCC(N)=O)C(=O)N[C@@H](CCC(N)=O)C(=O)N[C@@H](CCC(N)=O)C(=O)N[C@@H](CCC(N)=O)C(=O)N[C@@H](CCC(N)=O)C(=O)N[C@@H](CCC(N)=O)C(N)=O (H-E(NHPentyl)E(NHPentyl)E(X4)QQQQQQQQ-NH2) | 113 ng/mL (≈ 57.4 nM) | 0.32 ng/mL (≈ 0.163 nM) |  |  |  | 
CC(=O)NCCO[C@@H]([C@@H]1OC(C(=O)O)=C[C@H](N=C(N)N)[C@H]1NC(C)=O)[C@H](O)CO | 22 ng/mL (≈ 52.7 nM) | 5.5 ng/mL (≈ 13.2 nM) |  |  |  | 
CC(=O)N[C@H]1[C@H]([C@H](OCCNC(=O)CCC(N)C(=O)N[C@@H](CCC(N)=O)C(=O)N[C@@H](CCC(N)=O)C(=O)N[C@@H](CCC(N)=O)C(N)=O)[C@H](O)CO)OC(C(=O)O)=C[C@@H]1NC(=N)N (some centres undefined) (H-[ξE](X1)QQQ-NH2) | 364 ng/mL (≈ 410 nM) | 0.17 ng/mL (≈ 0.191 nM) |  |  |  | 
